From patent publication US8415342B2, “Besifloxacin ophthalmic composition for the treatment or control of infection” (Bausch & Lomb Incorporated, priority 2008, dated 2013)
Values after ≈ are worked out from the molar mass of the structure shown. Read-outs that look alike come from different tables or passages of the source.

How the values were obtained:
[1] = Nonclinical ocular and systemic pharmacokinetics after topical ocular administration; format: in vivo; details: for peak plasma besifloxacin concentration, on average: topical ocular administration
Excerpt: Results from the nonclinical ocular pharmacokinetic (PK) studies indicate that topical ocular administration of besifloxacin ophthalmic suspension, 0.6%, is associated with rapid absorption and distribution of besifloxacin into ocular tissues. […] However, based on the extensive ocular safety data available for besifloxacin, no adverse consequences are expected.
Systemic exposure to besifloxacin following topical ocular administration was low, with peak plasma besifloxacin concentrations of 7.6 and 9.2 ng/mL, respectively, on average.

[2] = system: Pathogens Associated With Bacterial Conjunctivitis; test: Integrated besifloxacin MIC data from preclinical (nonclinical) studies (Table 8); format: cell-based
[3] = Clostridium perfringens, N 21, agar dilution

Compound: N[C@@H]1CCCCN(c2c(F)cc3c(=O)c(C(=O)O)cn(C4CC4)c3c2Cl)C1 [Besifloxacin, (R)-(+)-(3-amino-2,3,4,5,6,7-hexahydro-1H-azepin-1-yl)-8-chloro-1-cyclopropyl-6-fluoro-1,4,-dihydro-4-oxo-3-quinolinecarboxylic acid]
- Cmax ([1]; non-excretory organs, topical or ocular, nonclinical, repeated (BID, TID, QID) topical ocular administration): < 25 ng/g
- half-life ([1]; ocular tissues, topical or ocular, nonclinical, topical ocular 0.6% suspension, read-out: apparent half-life of elimination from ocular tissues): > 5 h
- peak plasma besifloxacin concentration, on average ([1]; first of two groups not named ('respectively')): 7.6 ng/mL
- peak plasma besifloxacin concentration, on average ([1]; second of two groups not named ('respectively')): 9.2 ng/mL
- MIC50 ([2]; Acinetobacter baumannii, Acinetobacter baumanii Quinolone-R, N 5, read-out: MIC50): > 8 µg/mL
- MIC50 ([2]; Acinetobacter baumannii, Acinetobacter baumanii Quinolone-S, N 43, read-out: MIC50): 0.5 µg/mL (≈ 1.27 µM)
- MIC90 ([2]; Acinetobacter baumannii, Acinetobacter baumanii Quinolone-S, N 43, read-out: MIC90): 2 µg/mL (≈ 5.08 µM)
- MIC50 ([2]; Acinetobacter baumannii-calcoaceticus Quinolone-R, N 10, read-out: MIC50): > 8 µg/mL
- MIC90 ([2]; Acinetobacter baumannii-calcoaceticus Quinolone-R, N 10, read-out: MIC90): > 8 µg/mL
- MIC Range ([2]; Acinetobacter baumannii-calcoaceticus Quinolone-S, N 23): 0.12 to 4 µg/mL
- MIC50 ([2]; Acinetobacter baumannii-calcoaceticus Quinolone-S, N 23, read-out: MIC50): 0.5 µg/mL (≈ 1.27 µM)
- MIC Range ([2]; Acinetobacter lwoffii, N 13): 0.12 to 2 µg/mL
- MIC50 ([2]; Acinetobacter lwoffii, N 13, read-out: MIC50): 0.5 µg/mL (≈ 1.27 µM)
- MIC90 ([2]; Acinetobacter lwoffii, N 13, read-out: MIC90): 0.5 µg/mL (≈ 1.27 µM)
- MIC50 ([2]; Bacteroides fragilis, N 20, agar dilution, read-out: MIC50): 0.5 µg/mL (≈ 1.27 µM)
- MIC90 ([2]; Bacteroides fragilis, N 20, agar dilution, read-out: MIC90): 1 µg/mL (≈ 2.54 µM)
- MIC Range ([2]; Citrobacter koser Quinolone-R, N 1): >8 µg/mL
- MIC Range ([2]; Citrobacter koser Quinolone-S, N 99): 0.03 to 4 µg/mL
- MIC90 ([2]; Citrobacter koser Quinolone-S, N 99, read-out: MIC90): 0.25 µg/mL (≈ 0.635 µM)
- MIC50 [2, 3]: 0.25 µg/mL (≈ 0.635 µM)
- MIC90 [2, 3]: 0.25 µg/mL (≈ 0.635 µM)
- MIC Range [2, 3]: 0.12 to 0.25 µg/mL
- MIC Range ([2]; Corynebacterium species, N 30, agar dilution): ≦0.06-2 μg/mL
- MIC50 ([2]; Corynebacterium species, N 30, agar dilution, read-out: MIC50): 0.25 µg/mL (≈ 0.635 µM)
- MIC90 ([2]; Corynebacterium species, N 30, agar dilution, read-out: MIC90): 2 µg/mL (≈ 5.08 µM)
- MIC50 ([2]; Cutibacterium acnes, Propionibacterium acnes, N 21, agar dilution, read-out: MIC50): 0.25 µg/mL (≈ 0.635 µM)
- MIC90 ([2]; Cutibacterium acnes, Propionibacterium acnes, N 21, agar dilution, read-out: MIC90): 0.25 µg/mL (≈ 0.635 µM)
- MIC Range ([2]; Enterobacter aerogene Quinolone-S, N 37): 0.12 to 4 µg/mL
- MIC50 ([2]; Enterobacter aerogene Quinolone-S, N 37, read-out: MIC50): 0.25 µg/mL (≈ 0.635 µM)
- MIC90 ([2]; Enterobacter aerogene Quinolone-S, N 37, read-out: MIC90): 2 µg/mL (≈ 5.08 µM)
- MIC Range ([2]; Enterobacter cloacae Quinolone-R, N 1): >8 µg/mL
- MIC Range ([2]; Enterobacter cloacae Quinolone-S, N 58): 0.12 to 2 µg/mL
- MIC50 ([2]; Enterobacter cloacae, Enterobacter cloacae Quinolone-S, N 58, read-out: MIC50): 0.25 µg/mL (≈ 0.635 µM)
- MIC90 ([2]; Enterobacter cloacae, Enterobacter cloacae Quinolone-S, N 58, read-out: MIC90): 0.5 µg/mL (≈ 1.27 µM)
- MIC Range ([2]; Fusobacterium species, N 21, agar dilution): 0.12 to 8 µg/mL
- MIC50 ([2]; Fusobacterium species, N 21, agar dilution, read-out: MIC50): 0.25 µg/mL (≈ 0.635 µM)
- MIC90 ([2]; H. influenzae, value used for PK/PD ratios of Study 424): ^bMIC90: H. influenzae ≦0.06 μg/mL.
- MIC Range ([2]; Haemophilus influenzae (all phenotypes), N 243): ≦0.004-0.25 μg/mL
- MIC Range ([2]; Haemophilus influenzae β-lactamase+, N 118): 0.008 to 0.12 µg/mL
- MIC Range ([2]; Haemophilus influenzae β-lactamase−, N 100): ≦0.004-0.12 μg/mL
- MIC90 ([2]; Haemophilus influenzae, H. influenzae, value used for PK/PD ratios of Study 424, read-out: MIC90): ≤ 0.06 µg/mL
- MIC50 ([2]; Haemophilus influenzae, Haemophilus influenzae (all phenotypes), N 243, read-out: MIC50): 0.03 µg/mL (≈ 0.0762 µM)
- MIC50 ([2]; Haemophilus influenzae, Haemophilus influenzae β-lactamase+, N 118, read-out: MIC50): 0.03 µg/mL (≈ 0.0762 µM)
- MIC50 ([2]; Haemophilus influenzae, Haemophilus influenzae β-lactamase− Ampicillin-R, N 25, read-out: MIC50): 0.12 µg/mL (≈ 0.305 µM)
- MIC90 ([2]; Haemophilus influenzae, Haemophilus influenzae β-lactamase− Ampicillin-R, N 25, read-out: MIC90): 0.25 µg/mL (≈ 0.635 µM)
- MIC50 ([2]; Haemophilus influenzae, Haemophilus influenzae β-lactamase−, N 100, read-out: MIC50): 0.03 µg/mL (≈ 0.0762 µM)
- MIC Range ([2]; Key Organisms Quinolone-S, N 894): ≦0.004-1 μg/mL
- MIC50 ([2]; Key Organisms Quinolone-S, N 894, read-out: MIC50): 0.06 µg/mL (≈ 0.152 µM)
- MIC90 ([2]; Key Organisms Quinolone-S, N 894, read-out: MIC90): 0.12 µg/mL (≈ 0.305 µM)
- MIC50 ([2]; Key Organisms combined, N 1205): 0.06 µg/mL
- MIC90 ([2]; Key Organisms combined, N 1205, read-out: MIC90): 1 µg/mL
- MIC Range ([2]; Klebsiella oxytoca Quinolone-R, N 5): 1 to 8 µg/mL
- MIC50 ([2]; Klebsiella oxytoca Quinolone-R, N 5, read-out: MIC50): 8 µg/mL (≈ 20.3 µM)
- MIC Range ([2]; Klebsiella oxytoca Quinolone-S, N 45): 0.06 to 1 µg/mL
- MIC90 ([2]; Klebsiella oxytoca, Klebsiella oxytoca Quinolone-S, N 45, read-out: MIC90): 0.5 µg/mL (≈ 1.27 µM)
- MIC50 ([2]; Legionella pneumophila, N 50): 0.03 µg/mL (≈ 0.0762 µM)
- MIC90 ([2]; Legionella pneumophila, N 50): 0.03 µg/mL (≈ 0.0762 µM)
- MIC Range ([2]; Legionella pneumophila, N 50): 0.015 to 0.06 µg/mL
- MIC50 ([2]; Moraxella catarrhalis, N 201, read-out: MIC50): 0.06 µg/mL (≈ 0.152 µM)
- MIC90 ([2]; Moraxella catarrhalis, N 201, read-out: MIC90): 0.12 µg/mL (≈ 0.305 µM)
- MIC Range ([2]; Moraxella species, N 30, agar dilution): ≦0.06-0.13 μg/mL
- MIC50 ([2]; Moraxella species, N 30, agar dilution, read-out: MIC50): ≤ 0.06 µg/mL
